Measurements as given in article PMC5216352, “Disulfide isomerase-like protein AtPDIL1–2 is a good candidate for trichlorophenol phytodetoxification” (Scientific Reports, 2017).

Molecular target: T1, AtPDIL1-2 (Arabidopsis thaliana, UniProt Q9SRG3)
T1 construct: gene PDIL1-2; full-length cDNA (1527 bp ORF, start codon to C-terminal KDEL) in pET-32a, His-tagged fusion about 72 kDa, E. coli, Ni-NTA purified
T1 sequence (Q9SRG3 1-508): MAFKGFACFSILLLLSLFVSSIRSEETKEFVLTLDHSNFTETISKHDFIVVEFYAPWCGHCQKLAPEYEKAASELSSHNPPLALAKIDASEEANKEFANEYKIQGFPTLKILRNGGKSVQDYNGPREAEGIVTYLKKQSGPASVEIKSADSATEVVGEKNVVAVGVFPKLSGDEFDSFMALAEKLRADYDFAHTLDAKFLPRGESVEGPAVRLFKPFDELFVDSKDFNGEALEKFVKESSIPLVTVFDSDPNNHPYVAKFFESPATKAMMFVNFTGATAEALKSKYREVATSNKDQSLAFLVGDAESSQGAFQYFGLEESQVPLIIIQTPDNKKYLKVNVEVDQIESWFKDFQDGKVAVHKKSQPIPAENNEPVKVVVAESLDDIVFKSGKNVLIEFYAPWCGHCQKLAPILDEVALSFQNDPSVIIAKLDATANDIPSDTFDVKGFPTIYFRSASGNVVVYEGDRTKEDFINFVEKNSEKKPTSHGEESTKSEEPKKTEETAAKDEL
Assay: RNase A oxidative refolding assay, cCMP hydrolysis at […] nm
Type: biochemical
Details: 3.5 uM protein, 10 uM reduced denatured RNase, 4.5 mM cCMP, 1 mM GSH, 0.2 mM GSSG, pH 8; TCP concentration not given

`Oc1c(Cl)cc(Cl)cc1Cl` [2,4,6-TCP] gave a maximum inhibition of 16%.
